In patent US7452865B2, “Antagonistic analogs of GH RH (2003)” (The Administrare's of the Tulane Educational Fund, priority 2004, dated 2008):
Marks after values point to notes of the source that are not given here.

Columns and labels:
[1] = test system: GH-RH receptor isoforms on membrane fractions of human PC-3 prostate tumors; assay type: binding; settings: general statement
Outline: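 Competitive displacement of [^125I]JV-1-42 from crude membranes of human PC-3 prostate tumours grown as nude-mouse xenografts, with unlabelled peptides at 10^−12 to 10^−6 M. Bound radioactivity in the centrifuged pellet gamma-counted; Ki from Munson–Rodbard analysis. Relative affinity = Ki of reference peptide (JV-1-36 or JV-1-38) / Ki of test antagonist.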

IGF-I = assay: PC-3 xenografts, Experiment 2: serum IGF-I (RIA); assay type: in vivo, nude mice; settings: 5 μg/day s.c., 28 days; for Serum IGF-I (% inhibition): vs control
From the text: For the measurement of GH and IGF-I levels in the serum, as well as IGF-I and IGF-II concentrations in the cytosol fraction of tumors, blood samples and tumor samples were collected and processed as described (Braczkowski R, Schally A V, Plonowski A, Varga J L, Groot K, Krupa M, Armatis P, Cancer 95: 1735-1745, 2002), hereby incorporated by reference. Briefly, blood samples are centrifuged to separate the serum, tumors are homogenized and centrifuged to separate the cytosol fraction. Serum GH is then measured by the double-antibody RIA method. Before measurement by RIA, IGF-I and IGF-II are extracted from serum and cytosol fractions using an acid-ethanol cryoprecipitation method that eliminates most of the IGF binding proteins, which can interfere with the RIA. IGF-I concentration is measured by RIA using IGF-I as a standard and goat anti-IGF-I antibody (both from DSL Inc., Webster, Tex.). IGF-II concentration is measured by RIA using human recombinant IGF-II (Bachem) as a standard and anti-IGF-II monoclonal antibody (Amano International Enzyme, Troy, Va.).
(§1) Male nude mice were implanted s.c. with 3 mm^3 pieces of PC-3 human hormone-independent prostate cancer tissue on both flanks. When tumors reached a volume of approx. 50 mm^3, the mice were divided into 5 experimental groups with 7 to 8 animals in each group and received single daily injections for 28 days as follows: 1. Control (vehicle solution); 2. JV-1-38 (10 μg/day s.c.); 3 Peptide 31 (10 μg/day s.c.); 4. Peptide 67 (10 μg/day s.c.); 5. Peptide 62 (10 μg/day s.c.). Tumor volumes were measured twice a week. The experiment was ended on day 29 by sacrificing the mice under Isoflurane anesthesia. Resulting tumors were cleaned, weighed, and snap-frozen until further analyses. Trunk blood was collected from the abdominal aorta and serum was separated for RIA measurement of IGF-I. Statistical analyses of the measurement results were done by two-tailed t-test; data are presented as the means±S.E.
(§2) Experiment 2 was similar to Experiment 1, with the difference that Experiment 2 was started when PC-3 tumors had grown to approximately 30 mm^3 in volume. At this time, the animals were divided into 8 experimental groups with 8 animals in each group, and received single daily injections for 28 days as follows. 1. Control (vehicle solution); 2. JV-1-38 (10 μg/day s.c.); 3. Peptide 46 (5 μg/day: s.c.); 4. Peptide 77 (5 μg/day s.c); 5. Peptide 76 (5 μg/day s.c.); 6. Peptide 70 (5 μg/day s.c.); 7 Peptide 79 (5 μg/day s.c.); 8. Peptide 80 (5 μg/day s.c.). Further details of Experiment 2 are the same as for Experiment 1.

[2] = test system: PC-3 human prostate cancer xenografts; assay: PC-3 xenografts in nude mice, Experiment 2: tumor growth; assay type: in vivo; settings: for Tumor volume (mm^3) Initial: 5 μg/day groups, at start of treatment; for Tumor volume (mm^3) Final / Tumor volume doubling time / Tumor weight / Tumor volume Final (% inhibition) / Tumor weight (% inhibition): 5 μg/day s.c., 28 days; for Tumor volume Final (% inhibition) / Tumor weight (% inhibition): vs control
Experimental: as §1, §2

[3] = test system: hGH-RH(1-29)NH2 induced GH release; assay: Inhibition of GH release in superfused rat pituitary system; assay type: cell-based; settings: antagonist 30 nM; for GH response (% of control) 0 min: 1 nM hGH-RH(1-29)NH2 at 0 min; for GH response (% of control) 30 min: 1 nM hGH-RH(1-29)NH2 at 30 min; for GH response (% of control) 60 min: 1 nM hGH-RH(1-29)NH2 at 60 min; for GH response (% of control) 90 min: 1 nM hGH-RH(1-29)NH2 at 90 min; for GH response (% of control) 120 min: 1 nM hGH-RH(1-29)NH2 at 120 min
Outline: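 GH output was quantified by double-antibody RIA in superfusates of rat pituitary cells. Peptides were applied for 9 min at various concentrations before a 3-min 1 nM hGH-RH(1-29)NH2 pulse, with further pulses 30–120 min later; net integral responses given as percent of the original response.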

[4] = test system: H-69 human SCLC xenografts; assay: H-69 human SCLC xenografts in nude mice: tumor growth; assay type: in vivo
Experimental: Male nude mice were implanted s.c. with 3 mm^3 pieces of H-69 human SCLC tissue. When tumors reached a volume of approx. 80 mm^3 the mice were divided into 4 experimental groups of 7-8 animals each and received the following treatment for 4 weeks: group I (control), vehicle solution; group 2, Peptide 67 (10 μg/day s.c.); group 3, Peptide 31 (10 μg/day s.c.); group 4, Peptide 72 (10 μg/day s.c.). Tumor volumes were recorded twice a week. At the end of treatment, mice were anesthetized with isoflurane, killed by decapitation, and tumors were excised and weighed. Data are presented as means±S.E. Data were evaluated by one way ANOVA and the Student-Newman-Keuls test.

[5] = test system: PC-3 human prostate cancer xenografts; assay: PC-3 xenografts in nude mice, Experiment 3: tumor growth; assay type: in vivo
Experimental: Male nude mice were implanted s.c. with 3 mm^3 pieces of PC-3 human hormone-independent prostate cancer tissue on both flanks. When tumors reached a volume of approximately 65 mm^3, the mice were divided into 7 experimental groups with 8 to 9 animals in each group and received single daily injections for 28 days as follows: 1. Control (vehicle solution); 2. JV-1-38 (10 μg/day s.c.); 3. Peptide 35 (10 μg/day s.c.); 4. Peptide 36 (10 μg/day s.c.); 5. Peptide 37 (10 μd/day s.c.); 6. Peptide 39 (10 μg/day s.c.); 7. Peptide 41 (10 μg/day s.c.). Tumor volumes were measured twice a week. The experiment was ended on day 28 by sacrificing the mice under Isofurane anesthesia. Resulting tumors were cleaned, weighed, and snapfrozen until further analyses. Trunk blood was collected from the abdominal aorta and serum was separated for RIA measurement of IGF-I. Statistical analyses of the measurement results were done by ANOVA followed by Fisher test; data are presented as the means±S.E.

[6] = 10 μg/day s.c., 28 days, vs control

| Substance | binding affinities to the tumoral receptors for GH-RH (in words) [1] | Serum IGF-I (IGF-I) [ng/mL] | Serum IGF-I (% inhibition) (IGF-I) [%] | Tumor volume (mm^3) Initial [2] [mm^3] | Tumor volume (mm^3) Final [2] | Tumor volume doubling time [2] [days] | Tumor weight [2] [mg] | Tumor volume Final (% inhibition) [2] | Tumor weight (% inhibition) [2] | other results |
| --- | --- | --- | --- | --- | --- | --- | --- | --- | --- | --- |
| [CH3(CH2)6CO-Tyr^1, D-Arg^2, Phe(pCl)^6, Cit^8, His^9, Tyr(Et)^10, His^11, Abu^15, Nle^27, D-Arg^28, Har^29]hGH-RH(1-29)NH2 [Peptide 79] | extremely high binding affinities | 181 ± 19.8 | 31 | 29.1 ± 4.3 | 139 ± 49.4*# mm^3 | 13.6 ± 1.8 | 153 ± 54.5 | (60%) | (46%) |  |
| [PhAc-Tyr^1, D-Arg^2, Phe(pCl)^6, Har^9, Tyr(Me)^10, Abu^15, Nle^27, D-Arg^28, Har^29]hGH-RH(1-29)NHEt [Peptide 46] |  | 288 ± 17.9 | 0 | 26.6 ± 2.7 | 246 ± 93.7 mm^3 | 11.2 ± 1.3 | 188 ± 66.1 | (30%) | (34%) | GH response (% of control) 0 min [3]: 91 % of control; GH response (% of control) 30 min [3]: 28 % of control; GH response (% of control) 60 min [3]: 31 % of control; GH response (% of control) 90 min [3]: 56 % of control; GH response (% of control) 120 min [3]: 30 % of control |
| [CH3(CH2)6CO-Tyr^1, D-Arg^2, Phe(pCl)^6, Amp^9, Tyr(Me)^10, Abu^15, Nle^27, D-Arg^28, Har^29]hGH-RH(1-29)NH2 [Peptide 70] | extremely high binding affinities | 175 ± 12.9 | 33 | 26.5 ± 3.7 | 199 ± 40.4*# mm^3 | 12.6 ± 2.5 | 119 ± 25.3 | (43%) | (58%) |  |

Further lines, with some results ahead:

| binding affinities to the tumoral receptors for GH-RH (in words) [1] | Substance | Serum IGF-I (IGF-I) [ng/mL] | Serum IGF-I (% inhibition) (IGF-I) [%] | Tumor volume (mm^3) Initial [2] [mm^3] | Tumor volume (mm^3) Final [2] | Tumor volume doubling time [2] [days] | Tumor weight [2] [mg] | Tumor volume Final (% inhibition) [2] | Tumor weight (% inhibition) [2] | other results |
| --- | --- | --- | --- | --- | --- | --- | --- | --- | --- | --- |
| extremely high binding affinities | [HOOC(CH2)12CO-Tyr^1, D-Arg^2, Phe(pCl)^6, Cit^8, Amp^9, Tyr(Me)^10, His^11, Abu^15, Nle^27, D-Arg^28, Har^29]hGH-RH(1-29)NH2 [Peptide 77] | 276 ± 16.8 | 0 | 27.2 ± 3.2 | 192 ± 44.1 mm^3 | 10.7 ± 0.8 | 138 ± 34.3 | (45%) | (51%) |  |
| extremely high binding affinities | [CH3(CH2)6CO-Tyr^1, D-Arg^2, Phe(pCl)^6, Cit^8, Amp^9, Tyr(Me)^10, His^11, Abu^15, Nle^27, D-Arg^28, Har^29]hGH-RH(1-29)NH2 [Peptide 76] | 260 ± 29.7 | 1 | 26.8 ± 3.4 | 232 ± 30.8 mm^3 | 9.4 ± 0.6 | 226 ± 48.3 | (34%) | (20%) |  |
| extremely high binding affinities | [HOOC(CH2)12CO-Tyr^1, D-Arg^2, Phe(pCl)^6, Amp^9, Tyr(Me)^10, Abu^15, Nle^27, D-Arg^28, Har^29]hGH-RH(1-29)NH2 [Peptide 72] |  |  |  |  |  |  |  |  | antiproliferative effect on H-69 tumors (in words) ([4]; 10 μg/day, single daily injections): strongest antiproliferative effect; Tumor volume (mm^3) Final ([4]; H-69, 10 μg/day s.c., 4 weeks): 308 ± 23* mm^3; Tumor volume Final (% inhibition) ([4]; H-69, 10 μg/day s.c., 4 weeks, vs control): (90%); Tumor volume (mm^3) Initial ([4]; H-69, at start of treatment): 81 ± 9 mm^3 |
| extremely high binding affinities | [PhAc-Tyr^1, D-Arg^2, Phe(pCl)^6, Har^9, 2-Nal^10, Abu^15, Nle^27, D-Arg^28, Har^29]hGH-RH(1-29)NH2 [Peptide 35] |  |  |  |  |  |  |  |  | GH response (% of control) 0 min [3]: 91 % of control; GH response (% of control) 30 min [3]: 57 % of control; GH response (% of control) 60 min [3]: 80 % of control; GH response (% of control) 90 min [3]: 66 % of control; GH response (% of control) 120 min [3]: 72 % of control; antitumor effect on PC-3 tumors (in words) ([5]; 10 μg/day): more potent antitumor effect than reference peptide JV-1-38; Tumor volume (mm^3) Final ([5]; 10 μg/day s.c., 28 days): 261 ± 52.9** mm^3; Tumor volume doubling time ([5]; 10 μg/day s.c., 28 days): 17.0 ± 2.32 days; Tumor weight ([5]; 10 μg/day s.c., 28 days): 286 ± 58.9 mg; Tumor volume Final (% inhibition) [5, 6]: (68%); Tumor weight (% inhibition) [5, 6]: (59%); Tumor volume (mm^3) Initial ([5]; at start of treatment): 65.7 ± 11.3 mm^3 |
